According to article PMC8073686, “Characterization of Subtype Selective Cannabinoid CB2 Receptor Agonists as Potential Anti-Inflammatory Agents” (Pharmaceuticals, 2021):

Tests used:
[1] = system: TNF-α production in Jurkat cells; test: PHA/PMA-induced TNF-α production in Jurkat cells (ELISA of culture medium); type: cell-based, human; settings: 10 μM, 24 h
Procedure: Activation of CB2 is known to have anti-inflammatory effects. There are some studies reporting that CB2 agonists decrease cytokine production in immune cells. We also reported that the cannabinoid receptor agonist CP55,940 and ABK5 inhibit cytokine production in the human T cell lines Jurkat and MOLT-4 [24]. Since ABK5-1 and 5-2 were confirmed to be CB2-subtype selective agonists, we were interested to determine whether these compounds also have anti-inflammatory effects. Note, although ABK5-6 had marginally better binding affinity to CB2, it bound to CB1 very, very weakly (i.e., micromolar range). Therefore ABK5-6 was not selected for further evaluations. […] To test if these mRNA changes are reflected in the protein levels of cytokines, the IL-2 and TNF-α concentration in the cell culture medium were measured by ELISA. […]
Figure 4 Effect of ABK5-1 and ABK5-2 on phytohemagglutinin (PHA)/phorbol 12-myristate 13-acetate (PMA)-induced cytokine production in T cells. […] IL-2 and TNF-α mRNA levels were determined by real-time PCR (RT-PCR) after ABK5-1 treatment and (A) 3 h and (B) 24 h of PHA/PMA (phytohemagglutinin/phorbol 12-myristate 13-acetate) stimulation. […] IL-2 and TNF-α mRNA were also examined after ABK5-2 treatment and (E) 3 h and (F) 24 h of stimulation, and protein levels of (G) IL-2 and (H) TNF-α were measured after 24 h stimulation. […]

[2] = system: IL-6 production in BV-2 cells; test: LPS-induced IL-6 protein in BV-2 culture medium; type: cell-based, murine; settings: 10 μM, 24 h LPS stimulation
Procedure: (§1) We stimulated BV-2 by lipopolysaccharide (LPS) and confirmed induction of pro-inflammatory cytokine IL-1β and IL-6 (data not shown). […] These effects were also confirmed by cytokine protein levels.
(§2) Figure 6 Effect of ABK5-1 on lipopolysaccharide (LPS)-induced cytokine production in microglia. BV-2 cells were pretreated with DMSO (<0.1%) or 1 or 10 μM ABK5-1 and stimulated with LPS. (A) mRNA levels of IL-1β and IL-6 after 6 h of LPS stimulation. (B) IL-1β protein concentration in the cell culture medium after 24 h of LPS stimulation. U.D. indicates under detection limit. (C) IL-6 protein concentration in the cell culture medium after 24 h of LPS stimulation. (D) Viability of BV-2 cells after ABK5-1 10 μM treatment. Results are indicated as the mean ± S.D. of three independent assays performed for each concentration. One-way ANOVA plus Dunnett’s post-hoc test were used and **** p < 0.0001 (versus reference). TEXT PRINTED IN THE PICTURE: (B) ABK5-1: IL-1β (pg/mL): U.D. (10 μM; LPS +)

[3] = system: IL-6 mRNA in BV-2 cells; test: LPS-induced IL-6 mRNA in BV-2 cells; type: cell-based, murine; settings: 10 μM, 6 h LPS stimulation
Procedure: as §1, §2

[4] = system: IL-1β mRNA in BV-2 cells; test: LPS-induced IL-1β mRNA in BV-2 cells; type: cell-based, murine; settings: 10 μM, 6 h LPS stimulation
Procedure: as §1, §2

[5] = system: IL-1β production in BV-2 cells; test: LPS-induced IL-1β protein in BV-2 culture medium; type: cell-based, murine; settings: 10 μM
Procedure: as §1, §2

## CCOC(=O)c1ccccc1NC(=O)CN(c1c(C)cccc1C)S(=O)(=O)c1ccccc1 [ABK5-2]
[1]
  decrease of TNF-α production (protein, ELISA): ~43%

## CCOC(=O)c1ccccc1NC(=O)CN(c1ccc(C)cc1C)S(=O)(=O)c1ccccc1 [ABK5-1]
[1]
  decrease of TNF-α production (protein, ELISA): ~37%
[2]
  decrease of IL-6 cytokine concentration in the culture medium: 47%
[3]
  decrease of IL-6 mRNA: 48%
[4]
  decrease of IL-1β mRNA: 63%
[5]; 24 h LPS stimulation
  IL-1β cytokine concentration in the culture medium (in words): under the detection limit
[5]; LPS +, 24 h, U.D. = under detection limit
  IL-1β: U.D.
